Measurements as given in patent US10047105B2, “Gyrase inhibitors” (Merck Sharp & Dohme Corp., priority 2009, dated 2018).
In brackets after ≈: the same amount, converted by molar mass.

Columns and labels:
Type in all cases: cell-based
E. coli 8 ATCC 25922 = assay: MIC, E. coli 8 (wt); settings: E. coli 8 (EC8)
S. aureus ATCC 13709 = assay: MIC, antibacterial potency, S. aureus; settings: S. aureus (SA); in µg/mL
S. pneumoniae ATCC 51916 = assay: MIC, S. pneumoniae; settings: S. pneumoniae (Spn52); in µg/mL

| MIC EC8 (E. coli 8 ATCC 25922) | MIC, SA (S. aureus ATCC 13709) | MIC Spn52 (S. pneumoniae ATCC 51916) | Compound |
| --- | --- | --- | --- |
| > 64 µg/mL | 1 | 2 | CCc1[nH]c2nc(Oc3ccc4nccnc4c3)nc(N3CC4C(C3)C4NC(C)=O)c2c1Cl (stereo not drawn) [701,012] |
| 16 µg/mL (≈ 31.5 µM) | 1 | 2 | CCc1[nH]c2nc(Sc3ccc4nc(N5CC(N)C5)cnc4c3)nc(N3C[C@@H]4C(N)[C@@H]4C3)c2c1Cl (stereo partly drawn) [701,013] |
| 32 µg/mL (≈ 64.5 µM) | 4 | 8 | CCc1[nH]c2nc(Sc3ccc4nc(N5CC(N)C5)cnc4c3)nc(N3CC[C@@H](N)C3)c2c1Cl [701,014] |
| > 64 µg/mL | <=0.5 | 2 | CCc1[nH]c2nc(Sc3cc(C(=O)NOC)c4ncccc4c3)nc(N3CC[C@@H](N)C3)c2c1Cl [701,015] |
| > 64 µg/mL | >64 | >64 | CCc1[nH]c2nc(Sc3cnc4cccnc4c3)nc(N3C[C@H](N)[C@H](C(=O)N4CC(N)C4)C3)c2c1Cl [701,016] |
| > 64 µg/mL | 2 | 1 | CCc1[nH]c2nc(Sc3cnc4cccnc4c3)nc(N3C[C@H](N)[C@H](C(=O)NCC(C)C)C3)c2c1Cl [701,017] |
| > 64 µg/mL | >64 | 16 | CCc1[nH]c2nc(Sc3cnc4cccnc4c3)nc(N3C[C@H](N)[C@H](C(=O)NCC(C)O)C3)c2c1Cl (stereo partly drawn) [701,018] |
| > 32 µg/mL | >32 | >32 | CCc1[nH]c2nc(Sc3cnc4cccnc4c3)nc(N3C[C@H](N)[C@H](C(=O)NCC(O)CO)C3)c2c1Cl (stereo partly drawn) [701,019] |
| > 64 µg/mL | 4 | 2 | CCc1[nH]c2nc(Sc3cnc4cccnc4c3)nc(N3C[C@H](N)[C@H](C(=O)NCc4cccnc4)C3)c2c1Cl [701,020] |
| > 64 µg/mL | 4 | 4 | CCc1[nH]c2nc(Sc3cnc4cccnc4c3)nc(N3C[C@H](N)[C@H](C(=O)N[C@@H](CO)c4ccccc4)C3)c2c1Cl [701,021] |
| > 64 µg/mL | 4 | 2 | CCc1[nH]c2nc(Sc3cnc4cccnc4c3)nc(N3C[C@@H](N)[C@@H](C(=O)N[C@@H](CO)c4ccccc4)C3)c2c1Cl [701,022] |
| > 64 µg/mL | >64 | >64 | CCc1[nH]c2nc(Sc3cnc4cccnc4c3)nc(N3C[C@H](N)[C@H](C(=O)N4CC[C@@H](N)C4)C3)c2c1Cl [701,023] |
| > 64 µg/mL | 2 | 2 | CCc1[nH]c2nc(Sc3cnc4cccnc4c3)nc(N3C[C@H](N)[C@H](C(=O)Nc4nccs4)C3)c2c1Cl [701,024] |
| 16 µg/mL (≈ 35.2 µM) | <=0.5 | 2 | CCc1[nH]c2nc(Sc3cnc4ccc[n+]([O-])c4c3)nc(N3CC4CNC4C3)c2c1Cl (stereo not drawn) [701,025] |
| 8 µg/mL (≈ 17.1 µM) | <=0.5 | 1 | CCc1[nH]c2nc(Sc3cnc4ccc[n+]([O-])c4c3)nc(N3CC4CCNC4C3)c2c1Cl (stereo not drawn) [701,026] |
| > 64 µg/mL | <=0.5 | 1 | CCc1[nH]c2nc(Sc3cnc4ccc[n+]([O-])c4c3)nc(N3CC(O)C3)c2c1Cl [701,027] |
| > 64 µg/mL | <=0.5 | <=0.5 | CCNC(=O)NC1C2CN(c3nc(Sc4cnc5cccnc5c4)nc4[nH]c(CC)c(Cl)c34)CC21 (stereo not drawn) [701,028] |
| > 64 µg/mL | 2 | 4 | CCc1[nH]c2nc(Oc3ccc4nccnc4c3)nc(N3CCOCC3)c2c1Cl [701,029] |
| > 64 µg/mL | <=0.5 | <=0.5 | CCc1[nH]c2nc(Oc3cnc4c(c3)ncn4C)nc(Oc3ccc4nccnc4c3)c2c1Br [701,030] |
| > 64 µg/mL | <=0.5 | 2 | CCc1[nH]c2nc(Oc3cncc(C#N)c3)nc(N3CCOCC3)c2c1Cl [701,031] |
| > 64 µg/mL | 8 | 8 | CCc1[nH]c2nc(Oc3cnc4c(c3)ncn4C)nc(N3CC[C@@H](NC(C)=O)C3)c2c1Br [701,032] |
| > 64 µg/mL | >64 | >64 | CCc1[nH]c2nc(Oc3cnc4c(c3)ncn4C)nc(N3CC[C@@H](N)C3)c2c1Cl [701,033] |
| > 64 µg/mL | 4 | 4 | CCc1[nH]c2nc(Oc3cnc4c(c3)ncn4C)nc(N3CC[C@@H](NC(C)=O)C3)c2c1Cl [701,034] |
| > 64 µg/mL | <=0.5 | <=0.5 | CCOC(=O)NCC1CCN(c2nc(Sc3cnc4cccnc4c3)nc3[nH]c(CC)c(Cl)c23)C1 (stereo not drawn) [701,035] |
| 16 µg/mL (≈ 37.4 µM) | <=0.5 | 2 | CCc1[nH]c2nc(Sc3cnc4ccc[n+]([O-])c4c3)nc(N3CC(N)C3)c2c1Cl [701,036] |
| > 64 µg/mL | 8 | 16 | CCc1[nH]c2nc(Sc3cnc4ccc[n+]([O-])c4c3)nc(N(C)CCNC)c2c1Cl [701,037] |

| MIC EC8 (E. coli 8 ATCC 25922) | MIC, SA (S. aureus ATCC 13709) | MIC Spn52 (S. pneumoniae ATCC 51916) | Compound |
| --- | --- | --- | --- |
| 16 µg/mL (≈ 35.2 µM) | 8 | 32 | CCc1[nH]c2nc(Sc3cnc4ccc[n+]([O-])c4c3)nc(N3CC4(CNC4)C3)c2c1Cl [701,038] |
| > 64 µg/mL | 8 | 8 | CCc1[nH]c2nc(Sc3ccc4oc(C)nc4c3)nc(N3CC[C@@H](N)C3)c2c1Cl [701,039] |
| 32 µg/mL (≈ 67.9 µM) | <=0.5 | 4 | CCc1[nH]c2nc(Sc3ccc4c(OC)cc[n+]([O-])c4c3)nc(N3CC[C@@H](N)C3)c2c1Cl [701,040] |
| > 32 µg/mL | 8 | 16 | CCc1[nH]c2nc(Oc3cncc(OC)c3)nc(N3CC4C(N)C4C3)c2c1Cl (stereo not drawn) [701,041] |
| > 64 µg/mL | <=0.5 | 1 | CCc1[nH]c2nc(Sc3cnc4cccnc4c3)nc(N3CCC(CNS(C)(=O)=O)C3)c2c1Cl (stereo not drawn) [701,042] |
| > 64 µg/mL | 1 | >64 | CCOC(=O)C(=O)NCC1CCN(c2nc(Sc3cnc4cccnc4c3)nc3[nH]c(CC)c(Cl)c23)C1 (stereo not drawn) [701,043] |
| > 64 µg/mL | <=0.5 | 1 | CCc1[nH]c2nc(Sc3cnc4cccnc4c3)nc(N3CCC(CNC(C)=O)C3)c2c1Cl (stereo not drawn) [701,044] |
| > 64 µg/mL | <=0.5 | 1 | CCc1[nH]c2nc(Sc3cnc4cccnc4c3)nc(N3CCC(CNS(=O)(=O)c4ccccc4)C3)c2c1Cl (stereo not drawn) [701,045] |
| > 64 µg/mL | 2 | 4 | CCc1[nH]c2nc(Sc3cnc4cccnc4c3)nc(N3CCC(CNS(=O)(=O)c4cnoc4C)C3)c2c1Cl (stereo not drawn) [701,046] |
| > 64 µg/mL | <=0.5 | <=0.5 | CCc1[nH]c2nc(Sc3cnc4cccnc4c3)nc(N3CCC(CNC(=O)c4nccs4)C3)c2c1Cl (stereo not drawn) [701,047] |
| > 64 µg/mL | 16 | >64 | CCc1[nH]c2nc(Sc3ccc4cc(C(=O)N5CC(O)C5)c(C)[n+]([O-])c4c3)nc(N3CC[C@@H](N)C3)c2c1Cl [701,048] |
| 8 µg/mL (≈ 18.8 µM) | <=0.5 | <=0.5 | CCc1[nH]c2nc(Sc3ccc4cncnc4c3)nc(N3CC[C@@H](N)C3)c2c1Cl [701,049] |
| 32 µg/mL (≈ 77.7 µM) | <=0.5 | <=0.5 | CCc1[nH]c2nc(Sc3ccc4cncnc4c3)nc(N3CC(N)C3)c2c1Cl [701,050] |
| > 32 µg/mL | 2 | 4 | CCc1[nH]c2nc(Sc3ccc4c[n+]([O-])cnc4c3)nc(N3CC[C@@H](N)C3)c2c1Cl [701,051] |
| > 16 µg/mL | 4 | 8 | CCc1[nH]c2nc(Oc3cncnc3)nc(N3CC4C(C3)C4NC(C)=O)c2c1Br (stereo not drawn) [701,052] |
| > 64 µg/mL | <=0.5 | 1 | CCc1[nH]c2nc(Oc3ccc4cccnc4c3)nc(Oc3ccc4cccnc4c3)c2c1Br [701,054] |
| > 64 µg/mL | >64 | >64 | CCc1[nH]c2nc(Oc3ccc4cccnc4c3)nc(N3CC4C(N)C4C3)c2c1Cl (stereo not drawn) [701,055] |
| > 64 µg/mL | 4 | 8 | CCc1[nH]c2nc(Oc3ccc4ccc[n+]([O-])c4c3)nc(Oc3ccc4ccc[n+]([O-])c4c3)c2c1Br [701,056] |
| > 64 µg/mL | 8 | 32 | CCc1[nH]c2nc(Oc3ccc4c(c3)ncc[n+]4[O-])nc(Oc3ccc4c(c3)ncc[n+]4[O-])c2c1Cl [701,057] |
| > 32 µg/mL | <=0.5 | <=0.5 | CCc1[nH]c2nc(Oc3ccc4c(c3)ncc[n+]4[O-])nc(Oc3ccc4c(c3)ncc[n+]4[O-])c2c1Br [701,058] |
| > 64 µg/mL | <=0.5 | <=0.5 | CCc1[nH]c2nc(Oc3ccc4c(c3)ncc[n+]4[O-])nc(Oc3ccc4nccnc4c3)c2c1Br [701,059] |
| > 64 µg/mL | <=0.5 | <=0.5 | CCc1[nH]c2nc(Oc3ccc4nccnc4c3)nc(Oc3ccc4c(c3)ncc[n+]4[O-])c2c1Br [701,060] |
| > 32 µg/mL | <=0.5 | <=0.5 | CCc1[nH]c2nc(Oc3ccc4c(c3)ncc[n+]4[O-])nc(Oc3ccc4nccnc4c3)c2c1Cl [701,061] |
| > 64 µg/mL | 16 | 16 | CCc1[nH]c2nc(Sc3ccc4[nH]cc(C(=O)OC)c4c3)nc(N3CC[C@@H](N)C3)c2c1Cl [701,062] |
| 4 µg/mL (≈ 8.89 µM) | 2 | 2 | NC1C2CN(c3nc(Sc4cnc5cccnc5c4)nc4[nH]c(C5CC5)c(Cl)c34)CC12 (stereo not drawn) [701,063] |
| 4 µg/mL (≈ 9.13 µM) | 8 | 4 | N[C@@H]1CCN(c2nc(Sc3cnc4cccnc4c3)nc3[nH]c(C4CC4)c(Cl)c23)C1 [701,064] |
